Drawing on ChEMBL document CHEMBL1149753, “Two new alkaloids from Xestospongia sp., a New Caledonian sponge” (1992), this text covers ED50, EC50 and Activity for 4 molecules.

For one test, the system named is KB. In words: Cytotoxicity against human KB cells. The settings on record: for EC50: read-out: ED50 (the source's name). In kind it is functional.
The subject of the next test is L1210. Put plainly: Cytotoxicity against mouse L1210 cells. In kind it is functional. The note with it: for EC50: read-out: ED50 (the source's name).
A further test deals with P388. Put plainly: In vivo antitumor activity against mouse P388 cells. In kind it is functional, organism-based.

In brackets after ≈: the same amount, converted by molar mass. Activity calls are given as the source filed them. The rule behind the calls is not given here.

With `CN(C)CC1NCCc2c1[nH]c1ccccc21` (stereo unspecified), the ED50 result in the test on KB and with L1210 was “inactive” throughout.
Take `O[C@@]12CCCCCC[C@H]3CCN4CCC[C@@H](CCCCCC[C@H]5CCN(CCC1)[C@@H]2O5)[C@H]4O3` [DEMETHYLXESTOSPONGIN B]: the EC50 stood at 2.5 µg/mL (≈ 5.4 µM) in the test on KB and 0.8 µg/mL (≈ 1.73 µM) in the test on L1210. Also, the result with P388 was inactive.
Consider `C[C@@H]1CN2CCC[C@H]3CCCCCC[C@H]4CCN5CCC[C@@](O)(CCCCCC[C@@H]1O[C@H]32)[C@H]5O4` [XESTOSPONGIN B], for which the results for the EC50 in the test with KB and in the test with L1210 were 2.5 µg/mL (≈ 5.24 µM) and 2 µg/mL (≈ 4.2 µM), respectively. The result in the test on P388 was inactive.
On to `O[C@@]12CCCCCC[C@H]3CCN4CCC[C@H](CCCCCC[C@H]5CCN(CCC1)[C@@H]2O5)[C@H]4O3` [XESTOSPONGIN D], for which the EC50 came to 2 µg/mL (≈ 4.32 µM) with KB and 0.2 µg/mL (≈ 0.432 µM) in the test on L1210. Besides, the result with P388 was inactive.
